A word on the EC50: it is the concentration at which the effect is half-maximal. By GI50 is commonly meant the concentration at which growth is held to half of that of the control. High values mean less potent growth inhibition, low ones more potent growth inhibition.

Series [1] has as its target T1, tau (Homo sapiens, UniProt P10636). Put plainly: Tau immunoblot of tau-BiFC cell lysates (reducing and nonreducing SDS-PAGE). Particulars: tauK18^P301L-activated tau-BiFC cells; for Level of disulfide-linked tau oligomers compared to basal: nonreducing SDS-PAGE, control 2.4 ± 0.4-fold. For orientation: In western blotting, separated proteins are transferred to a membrane and probed.
Procedure: For reducing SDS‒PAGE analysis, cell or brain lysates were mixed with 4x Laemmli buffer containing 10% β-mercaptoethanol (BME) and boiled at 97 °C for 5 min. For nonreducing SDS‒PAGE analysis, cell or brain lysates were mixed with 4x Laemmli buffer without BME. For immunoblot analysis, 10 μg of each lysate was separated on a 10% SDS–PAGE gel and transferred to a PVDF membrane. The levels of total tau and phosphorylated tau were detected by anti-tau antibodies against 2B11 (IBL), Tau5 (Abcam), pSer199 (Abcam), pSer396 (Abcam), and pThr205 (Abcam). […] Band intensity was quantified using ImageJ software (NIH). All data were normalized to β-actin.

Series [2] concerns tau. The series can be described thus: Tau immunoblot of primary hippocampal neuron lysates. It is filed as cell-based, rat. To be noted: primary neurons, tauK18^P301L; for Level of disulfide-linked tau oligomers compared to basal: nonreducing SDS-PAGE, control 1.8 ± 0.3-fold. How it is done:
Band intensity was quantified using ImageJ software (NIH). All data were normalized to β-actin.
(§1) Primary hippocampal neurons were isolated from Day 18 embryonic Sprague‒Dawley rat brains as described previously. The neurons were seeded at a density of 3.5 × 10^5 cells per well on a poly-D-lysine-coated 6-well plate and maintained in neurobasal medium at 37 °C in a humidified atmosphere of 5% CO2. The neurobasal medium contained 2% B27 supplement, 0.5 mM GlutaMAX, 100 units/mL penicillin, and 100 μg/mL streptomycin. Every 3 days, 50% of the medium was replaced with fresh neurobasal medium. At DIV10, neurons were incubated with MB, LMTM (3 µM), or levosimendan (10 µM) in the presence of tauK18^P301L (10 µg/mL) for 48 h.

The target in series [3] is T1, tau. Put plainly: Tau-BiFC response in tau-BiFC cells (high-content imaging). Also on record: expressed in transfected cells; host or cells: HEK293 Tau-BiFC cells (G418-selected). The class given is cell-based. Particulars: 48 h of treatment.
Series [4] has as its target T2, tauK18 (Homo sapiens, UniProt P10636).
T2 construct: under in vitro conditions using a purified tauK18 fragment; 6xHis; made in house; host or cells: E. coli BL21 (DE3)
Put plainly: In vitro tau aggregation assay (thioflavin S). The class given is biochemical. Particulars: 5 days; for EC50: tauK18 with heparin and DTT, read-out: EC50, inhibition of tau aggregation (ThS). How it is done:
(§2) To evaluate the inhibitory effect of drugs on tau aggregation, tauK18 protein (0.5 mg/mL) was incubated with each drug at various concentrations in the presence of DTT (100 μM) and heparin (0.1 mg/mL) at 37 °C for 5 days with vigorous shaking (220 rpm). For the tau disaggregation assay, the preformed aggregation mixture of tauK18 was incubated with each drug at 37 °C for 4 days with vigorous shaking (220 rpm). On the final day of incubation, the level of β-sheet aggregates was evaluated by thioflavin S (ThS) assay. For the ThS assay, 5 μL of each mixture was transferred to a black 384-well plate with 45 μL of PBS containing 10 μM ThS. ThS fluorescence (λex = 430 nm, and λem = 500 nm) was measured by using a Flexstation2 spectrophotometer (Molecular Devices).

Series [5] has as its target T2, tauK18. The series can be described thus: In vitro tau disaggregation assay (thioflavin S). The class given is biochemical. Particulars: preformed tauK18 aggregates, 4 days; read-out: EC50, tau disaggregation (ThS). As for the experimental part:
as §2

A short description of series [6]: Cell viability of tau-BiFC cells (number of nuclei). The class given is cell-based, human. To be noted: human, HEK293 Tau-BiFC cells, 48 h of treatment. As for the experimental part: HEK293 Tau-BiFC cells were maintained in Dulbecco’s modified Eagle medium (DMEM) supplemented with 10% fetal bovine serum (FBS), 100 units/mL penicillin, 100 µg/mL streptomycin and 100 µg/mL Geneticin (G418) in a humidified atmosphere containing 5% CO2 at 37 °C. Tau-BiFC cells were activated by treatment with FK (30 μM) or tauK18^P301L (5 μg/mL).
For screening of FDA-approved & Passed Phase I Drug Library, tau-BiFC cells were plated on µ-clear 384-well plates. The next day, the cells were cotreated with forskolin and 1,018 library compounds at a concentration of 10 µM. MB and LMTM (3 µM) were used as positive controls. After 46 h, nuclei were counterstained with Hoechst (Invitrogen). BiFC (λex = 460–490 nm and λem = 500–550 nm) and Hoechst (λex = 355–385 nm and λem = 430–500 nm) fluorescence images were acquired automatically by using Operetta® (PerkinElmer). BiFC fluorescence intensity and the number of nuclei were quantified using Harmony 3.1 software (PerkinElmer). Integrated tau-BiFC intensity represents the area of selected cell X mean fluorescence intensity. The means and standard deviations (S.D.) of BiFC fluorescence intensities and the number of nuclei were plotted using GraphPad Prism.

Another series concerns Tau^P301L-BiFC mice. Put plainly: Novel object recognition test. The class given is in vivo, mouse. To be noted: 5 mg/kg i.p., three times a week, 4 months; vehicle TG 0.49, WT 0.74. As for the experimental part:
For drug administration, LMTM and levosimendan were dissolved in PBS containing 40% polyethylene glycol (PEG; Sigma). Nine-month-old Tau^P301L-BiFC mice were intraperitoneally administered each drug for 4 months, three times a week, at a dosage of 5 mg/kg (n = 11 per group). Vehicle-treated Tau^P301L-BiFC mice and age-matched wild-type mice were used as control groups. Behavioral assessments were conducted as described below for one month from the end of drug administration. All mice were sacrificed at the age of 14 months for pathological analysis.
The novel object recognition test was performed as described previously. Briefly, for habituation, mice (n = 9 per group) were individually placed in the center of an open field arena (40 × 40 cm) and could freely explore for 15 min. The next day, in the training trial (familiarization phase), the mice could explore two identical objects in the open field for 10 min. […] The exploration time for the familiar (old) or the new (novel) object during the recognition phase was recorded using a Noldus EthoVision XT video tracking system. Memory was operationally defined by the recognition index calculated by dividing the time an animal spent exploring the novel object or old object by the total time spent exploring objects in the testing period. The exploration time was measured when the mouse pointed toward the object in the vicinity of the object.

Series [7] relates to primary hippocampal neurons. Put plainly: NeuO staining, number of neurons and neurite lengths. The class given is cell-based. Particulars: for Number of NeuO-stained live neurons / Neurite length: tauK18^P301L, 48 h; for Number of NeuO-stained live neurons: basal 1925 ± 66, control 943 ± 30; for Neurite length: control 142.8 ± 17.8 μm. How it is done:
as §1
At DIV10, neurons grown on a 96-well plate were treated with MB, LMTM (3 µM), or levosimendan (10 µM) followed by tauK18^P301L activation. After 48 h, the neurons were stained with NueO (50 nM), a neuron-selective probe. NeuO fluorescence (λex = 460–490 nm and λem = 518–580 nm) images were acquired by using Operetta® (PerkinElmer). The number of neurons and total lengths of neurites were quantified by Harmony 3.1 software (PerkinElmer). Error bars represent the standard deviations (S.D.) of four replicate experiments.

[8] abbreviates: Tau-BiFC^ON by forskolin (30 μM).
Setting [9] is: Tau-BiFC^ON by tauK18^P301L (5 μg/mL).

Molecules are shown by their SMILES.

T2 sequence (P10636 561-685 limits assumed): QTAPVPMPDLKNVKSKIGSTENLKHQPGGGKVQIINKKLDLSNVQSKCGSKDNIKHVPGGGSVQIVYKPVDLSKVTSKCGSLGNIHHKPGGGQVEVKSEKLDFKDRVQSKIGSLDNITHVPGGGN
T1 sequence (P10636 1-441 isoform P10636-8): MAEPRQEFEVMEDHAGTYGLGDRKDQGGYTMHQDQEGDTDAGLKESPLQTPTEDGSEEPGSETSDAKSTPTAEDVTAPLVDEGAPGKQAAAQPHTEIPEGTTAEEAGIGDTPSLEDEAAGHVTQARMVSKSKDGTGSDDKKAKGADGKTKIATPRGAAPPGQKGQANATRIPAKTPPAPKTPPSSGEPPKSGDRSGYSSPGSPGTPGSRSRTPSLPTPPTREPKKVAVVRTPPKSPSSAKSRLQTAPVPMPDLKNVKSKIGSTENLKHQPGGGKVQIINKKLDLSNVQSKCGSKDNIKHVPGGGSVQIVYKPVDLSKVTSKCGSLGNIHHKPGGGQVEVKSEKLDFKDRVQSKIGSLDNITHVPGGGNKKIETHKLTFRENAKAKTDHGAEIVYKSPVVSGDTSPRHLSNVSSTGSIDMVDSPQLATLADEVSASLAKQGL
T1 sequence (P10636 1-441 isoform P10636-8): as above

As to `C[C@@H]1CC(=O)NN=C1c1ccc(NN=C(C#N)C#N)cc1` [Levosimendan], the “Level of disulfide-linked tau oligomers compared to basal” value at tau [1] (45 μM) came to 0.8 ± 0.2 fold; with tau [2] (10 μM), 0.5 ± 0.1 fold. Besides, at tau [1] (45 μM, control 1.9 ± 0.2-fold), the “Level of tau phosphorylation at T205 compared to basal” value was found to be 1.0 ± 0.1 fold. The “Total tau level compared to basal” value stood at 1.0 ± 0.2 fold at tau [1] (control 2.0 ± 0.1-fold) and 1.0 ± 0.1 fold in the series on tau [2] (10 μM, 48 h, control 1.5 ± 0.1-fold). In addition, in the series on tau [2] (10 μM, 48 h, control 1.7 ± 0.1-fold), the “Tau phosphorylation at S199 compared to basal” value worked out at 0.9 ± 0.1 fold. Besides, the “Tau phosphorylation at S396 compared to basal” value in the series with tau [2] (10 μM, 48 h, control 2.0 ± 0.3-fold) is recorded as 0.9 ± 0.1 fold. Moreover, the EC50 was 1900 ± 100 nM on tau [3] (setting [8]), 2200 ± 100 nM at tau [3] (setting [9]), 2600 ± 100 nM on tauK18 [4] and 3700 ± 200 nM on tauK18 [5]. For the same compound, the “Inhibition of tau aggregation in vitro (ThS response)” value at tauK18 [4] (heparin-induced) is reported as “strong anti-tau aggregation activity”. The results for the GI50 at 48 h in series [6] (setting [8]) and in series [6] (setting [9]) were 124000 ± 300 nM and 101300 ± 400 nM, respectively. Also, the “Recognition index (RI) for a novel object” value in the series with Tau^P301L-BiFC mice is 0.69. In series [7] (10 μM), the “Number of NeuO-stained live neurons” value is listed as 1650 ± 114 neurons. Also, the Neurite length in series [7] (10 μM) is 346.8 ± 20.7 μm.
In the case of `CN(C)c1ccc2c(c1)Sc1cc(N(C)C)ccc1N2.CS(=O)(=O)O.CS(=O)(=O)O` [LMTM, leucomethylene blue mesylate], the figures for the “Level of disulfide-linked tau oligomers compared to basal” value on tau [1] (5 μM) and in the series with tau [2] (3 μM) were 1.9 ± 0.4 fold and 2.4 ± 0.3 fold, respectively. At tau [1] (5 μM, reducing gel), the “Level of pS199-positive monomers compared to basal” value is recorded as 0.3 ± 0.0 fold. Moreover, on tau [1] (5 μM, reducing gel), the “Level of pS199-positive oligomers compared to basal” value is 0.4 ± 0.1 fold. For the same compound, on tau [1] (5 μM, reducing gel), the “Level of pT205-positive monomers compared to basal” value is 0.2 ± 0.2 fold. For the same compound, the “Level of pT205-positive oligomers compared to basal” value on tau [1] (5 μM, reducing gel) is listed as 0.6 ± 0.2 fold. Moreover, the 50% effective concentration (EC50) at tau [3] (setting [8]) was 2200 ± 200 nM; at tau [3] (setting [9]), 2700 ± 200 nM; at tauK18 [4], 1900 ± 200 nM; on tauK18 [5], 3400 ± 200 nM. Also, the “Recognition index (RI) for a novel object” value in the series with Tau^P301L-BiFC mice is reported as 0.59. For the same compound, the “Number of NeuO-stained live neurons” value in series [7] (3 μM) stood at 1182 ± 76 neurons. Besides, the Neurite length in series [7] (3 μM) came to 151.1 ± 24.4 μm. In series [7] (higher concentrations over 10 μM (data not shown)), the “Neuronal cell death in primary hippocampal neurons” value is reported as “severe neuronal cell death”.
